Laboratory results taken from patent US11596639B2, “Substituted indole Mcl-1 inhibitors” (Vanderbilt University, priority 2016, dated 2023).

Target: Mcl-1 (Homo sapiens (Human), UniProt Q07820)
Test: Fluorescence polarization anisotropy (FPA) competition assay, FITC-Bak or FITC-Bim BH3 peptide
Type: binding
Details: read-out: Ki for Inhibition of Mcl-1 by FPA assay

Sequence of Mcl-1 (Q07820 172-327): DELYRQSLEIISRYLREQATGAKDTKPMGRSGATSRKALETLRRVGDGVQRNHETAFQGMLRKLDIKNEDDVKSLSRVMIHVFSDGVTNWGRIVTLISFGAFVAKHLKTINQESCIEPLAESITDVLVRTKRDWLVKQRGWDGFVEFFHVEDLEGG

For `Cc1cc(CCCCc2c(C(=O)N3CCN(c4ccccc4C(=O)O)CC3)[nH]c3c(-c4c(C)nn(C)c4C)c(Cl)ccc23)cc(C)c1Cl` [Example 744, 2-(4-(6-Chloro-3-(4-(4-chloro-3,5-dimethylphenyl)butyl)-7-(1,3,5-trimethyl-1H-pyrazol-4-yl)-1H-indole-2-carbonyl)piperazin-1-yl)benzoic acid], the Ki was 30 nM.

For `Cc1cc(OCCCc2c3n(c4c(-c5c(C)nn(C)c5C)c(Cl)ccc24)CCCN(Cc2cc(C(=O)O)cc(N4CCN(C(=O)c5ccco5)CC4)n2)C3=O)cc(C)c1Cl` [Example 9, 2-((8-Chloro-11-(3-(4-chloro-3,5-dimethylphenoxy)propyl)-1-oxo-7-(1,3,5-trimethyl-1H-pyrazol-4-yl)-4,5-dihydro-1H-[1,4]diazepino[1,2-a]indol-2(3H)-yl)methyl)-6-(4-(furan-2-carbonyl)piperazin-1-yl)isonicotinic acid], the Ki was 20 nM.

With `Cc1cc(OCCCc2c(C(=O)NC3CCC(C(=O)O)CC3)[nH]c3c(-c4c(C)ncnc4C)c(Cl)ccc23)cc(C)c1Cl` (single isomer, unassigned) [Example 746, 4-(6-Chloro-3-(3-(4-chloro-3,5-dimethylphenoxy)propyl)-7-(4,6-dimethylpyrimidin-5-yl)-1H-indole-2-carboxamido)cyclohexane-1-carboxylic acid] the Ki was 5.2 nM.

Molecule `COC(=O)c1ccc2c(c1)c(N1C[C@@H](C)n3c(c(CCCOc4cc(C)c(Cl)c(C)c4)c4ccc(Cl)c(-c5c(C)nn(C)c5C)c43)C1=O)cn2COCC[Si](C)(C)C` [Example 243, Methyl (R)-3-(7-chloro-10-(3-(4-chloro-3,5-dimethylphenoxy)propyl)-4-methyl-1-oxo-6-(1,3,5-trimethyl-1H-pyrazol-4-yl)-3,4-dihydropyrazino[1,2-a]indol-2(1H)-yl)-1-((2-(trimethylsilyl)ethoxy)methyl)-1H-indole-5-carboxylate] has a Ki of 45 nM.

`Cc1cc(CCCCc2c(C(=O)N3CCN(c4cncc(C(=O)O)c4)CC3)[nH]c3c(-c4c(C)nn(C)c4C)c(Cl)ccc23)cc(C)c1Cl` [Example 740, 5-(4-(6-Chloro-3-(4-(4-chloro-3,5-dimethylphenyl)butyl)-7-(1,3,5-trimethyl-1H-pyrazol-4-yl)-1H-indole-2-carbonyl)piperazin-1-yl)nicotinic acid] was tested, and the Ki was 85 nM.

Work on `Cc1cc(OCCCc2c3n(c4c(-c5c(C)nn(C)c5C)c(Cl)ccc24)CCCN(Cc2cc(C(=O)O)cc(N4CCNCC4)n2)C3=O)cc(C)c1Cl` [Example 10, 2-((8-Chloro-11-(3-(4-chloro-3,5-dimethylphenoxy)propyl)-1-oxo-7-(1,3,5-trimethyl-1H-pyrazol-4-yl)-4,5-dihydro-1H-[1,4]diazepino[1,2-a]indol-2(3H)-yl)methyl)-6-(piperazin-1-yl)isonicotinic acid] yielded a Ki of 57 nM.

Molecule `Cc1cc(OCCCc2c3n(c4c(-c5c(C)nn(C)c5C)c(Cl)ccc24)CCCN(c2cc4c(c(C(=O)O)c2)OCCO4)C3=O)cc(C)c1Cl` [Example 25, 7-(8-Chloro-11-(3-(4-chloro-3,5-dimethylphenoxy)propyl)-1-oxo-7-(1,3,5-trimethyl-1H-pyrazol-4-yl)-4,5-dihydro-1H-[1,4]diazepino[1,2-a]indol-2(3H)-yl)-2,3-dihydrobenzo[b][1,4]dioxine-5-carboxylic acid] has a Ki of 1.1 nM.

In the case of `CC(=O)N1CCN(c2cc(C(=O)O)cc(CN3CCCn4c(c(CCCOc5cc(C)c(Cl)c(C)c5)c5ccc(Cl)c(-c6c(C)nn(C)c6C)c54)C3=O)n2)CC1` [Example 17, 2-(4-acetylpiperazin-1-yl)-6-((8-chloro-11-(3-(4-chloro-3,5-dimethylphenoxy)propyl)-1-oxo-7-(1,3,5-trimethyl-1H-pyrazol-4-yl)-4,5-dihydro-1H-[1,4]diazepino[1,2-a]indol-2(3H)-yl)methyl)isonicotinic acid], the Ki is reported as 10 nM.

`Cc1cc(OCCCc2c3n(c4c(-c5c(C)nn(C)c5C)c(Cl)ccc24)CCCN(c2cc(C(=O)O)c4c(cnn4C)c2)C3=O)cc(C)c1Cl` [Example 85, 5-[8-Chloro-11-[3-(4-chloro-3,5-dimethyl-phenoxy)propyl]-1-oxo-7-(1,3,5-trimethylpyrazol-4-yl)-4,5-dihydro-3H-[1,4]diazepino[1,2-a]indol-2-yl]-1-methyl-indazole-7-carboxylic acid] was tested, and the Ki was 1.5 nM.

`Cc1cc(CCCCc2c(C(=O)N3CCN(c4ccnc(C(=O)O)c4)CC3)[nH]c3c(-c4c(C)nn(C)c4C)c(Cl)ccc23)cc(C)c1Cl` [Example 738, 4-(4-(6-Chloro-3-(4-(4-chloro-3,5-dimethylphenyl)butyl)-7-(1,3,5-trimethyl-1H-pyrazol-4-yl)-1H-indole-2-carbonyl)piperazin-1-yl)picolinic acid] showed a Ki of 200 nM.

Molecule `Cc1cc(OCCCc2c3n(c4c(-c5c(C)nn(C)c5C)c(Cl)ccc24)CCCN(c2cccc4c(C#N)cn(C)c24)C3=O)cc(C)c1Cl` [Example 6, 7-[8-Chloro-11-[3-(4-chloro-3,5-dimethyl-phenoxy)propyl]-1-oxo-7-(1,3,5-trimethylpyrazol-4-yl)-4,5-dihydro-3H-[1,4]diazepino[1,2-a]indol-2-yl]-1-methyl-indole-3-carbonitrile] has a Ki of 54 nM.

For `Cc1cc(OCCCc2c3n(c4c(-c5c(C)nn(C)c5C)c(Cl)ccc24)CCCN(Cc2cc(C(=O)O)cc(N4CCN(S(=O)(=O)CCc5ccccc5)CC4)n2)C3=O)cc(C)c1Cl` [Example 38, 2-((8-Chloro-11-(3-(4-chloro-3,5-dimethylphenoxy)propyl)-1-oxo-7-(1,3,5-trimethyl-1H-pyrazol-4-yl)-4,5-dihydro-1H-[1,4]diazepino[1,2-a]indol-2(3H)-yl)methyl)-6-(4-(phenethylsulfonyl)piperazin-1-yl)isonicotinic acid], the Ki was 62 nM.

In the case of `Cc1cc(CCCCc2c(C(=O)N3CCN(c4ccccc4C(=O)O)CC3)n(Cc3cccnc3)c3c(-c4c(C)nn(C)c4C)c(Cl)ccc23)cc(C)c1Cl` [Example 739, 2-(4-(6-Chloro-3-(4-(4-chloro-3,5-dimethylphenyl)butyl)-1-(pyridin-3-ylmethyl)-7-(1,3,5-trimethyl-1H-pyrazol-4-yl)-1H-indole-2-carbonyl)piperazin-1-yl)benzoic acid], the Ki is reported as 73 nM.

Molecule `Cc1nn(C)c(C)c1-c1c(Cl)ccc2c(CCCOCC3CC3)c3n(c12)[C@H](C)CN(c1cn(C)c2ccc(C(=O)O)cc12)C3=O` [Example 404, (R)-3-(7-chloro-10-(3-(cyclopropylmethoxy)propyl)-4-methyl-1-oxo-6-(1,3,5-trimethyl-1H-pyrazol-4-yl)-3,4-dihydropyrazino[1,2-a]indol-2(1H)-yl)-1-methyl-1H-indole-5-carboxylic acid] has a Ki of 44 nM.

Molecule `Cc1cc(OCCCc2c(C(=O)N3CCC(C(=O)O)C3)[nH]c3c(-c4c(C)ncnc4C)c(Cl)ccc23)cc(C)c1Cl` (stereo not shown) [Example 745, 1-[6-Chloro-3-[3-(4-chloro-3,5-dimethyl-phenoxy)propyl]-7-(4,6-dimethylpyrimidin-5-yl)-1H-indole-2-carbonyl]pyrrolidine-3-carboxylic acid] has a Ki of 44 nM.

`Cc1cc(OCCCc2c3n(c4c(-c5c(C)nn(C)c5C)c(Cl)ccc24)CCCN(c2ccc4c(c2)CCCN4CC(=O)O)C3=O)cc(C)c1Cl` [Example 46, 2-(6-(8-Chloro-11-(3-(4-chloro-3,5-dimethylphenoxy)propyl)-1-oxo-7-(1,3,5-trimethyl-1H-pyrazol-4-yl)-4,5-dihydro-1H-[1,4]diazepino[1,2-a]indol-2(3H)-yl)-3,4-dihydroquinolin-1(2H)-yl)acetic acid] gave a Ki of 26 nM.

`Cc1cc(OCCCc2c3n(c4c(-c5c(C)cccc5C)c(Cl)ccc24)CCCN(c2cc(C(=O)O)c4ccn(C)c4c2)C3=O)cc(C)c1Cl` [Example 91, 6-[8-Chloro-11-[3-(4-chloro-3,5-dimethyl-phenoxy)propyl]-7-(2,6-dimethylphenyl)-1-oxo-4,5-dihydro-3H-[1,4]diazepino[1,2-a]indol-2-yl]-1-methyl-indole-4-carboxylic acid] gave a Ki of 7.3 nM.

In the case of `Cc1cc(OCCCc2c3n(c4c(-c5c(C)ncnc5C)c(Cl)ccc24)[C@H](C)CN(c2cccc4cccc(C(=O)O)c24)C3=O)cc(C)c1Cl` [Example 255, 8-[(4R)-7-chloro-10-[3-(4-chloro-3,5-dimethyl-phenoxy)propyl]-6-(4,6-dimethylpyrimidin-5-yl)-4-methyl-1-oxo-3,4-dihydropyrazino[1,2-a]indol-2-yl]naphthalene-1-carboxylic acid], the Ki is reported as 1.3 nM.

`Cc1cc(CCCCc2c(C(=O)N3CCN(c4ccc(C(=O)O)nc4)CC3)n(Cc3cccnc3)c3c(-c4c(C)nn(C)c4C)c(Cl)ccc23)cc(C)c1Cl` [Example 737, 5-(4-(6-Chloro-3-(4-(4-chloro-3,5-dimethylphenyl)butyl)-1-(pyridin-3-ylmethyl)-7-(1,3,5-trimethyl-1H-pyrazol-4-yl)-1H-indole-2-carbonyl)piperazin-1-yl)picolinic acid] gave a Ki of 140 nM.

Work on `Cc1cc(OCCCc2c3n(c4c(-c5c(C)nn(C)c5C)c(Cl)ccc24)CCCN(c2cc(C(=O)O)c4cn(CCN(C)C)nc4c2)C3=O)cc(C)c1Cl` [Example 42, 6-[8-chloro-11-[3-(4-chloro-3,5-dimethyl-phenoxy)propyl]-1-oxo-7-(1,3,5-trimethylpyrazol-4-yl)-4,5-dihydro-3H-[1,4]diazepino[1,2-a]indol-2-yl]-2-[2-(dimethylamino)ethyl]indazole-4-carboxylic acid] yielded a Ki of 8 nM.

In the case of `Cc1cc(OCCCc2c3n(c4c(-c5c(C)nn(C)c5C)c(Cl)ccc24)[C@H](C)[C@@H](C)N(c2cc(C(=O)O)c4ccn(C)c4c2)C3=O)cc(C)c1Cl` [Example 143, 6-((3R,4R)-7-chloro-10-(3-(4-chloro-3,5-dimethylphenoxy)propyl)-3,4-dimethyl-1-oxo-6-(1,3,5-trimethyl-1H-pyrazol-4-yl)-3,4-dihydropyrazino[1,2-a]indol-2(1H)-yl)-1-methyl-1H-indole-4-carboxylic acid], the Ki is reported as 7.6 nM.

With `Cc1cc(OCCCc2c3n(c4c(-c5c(C)nn(C)c5C)c(Cl)ccc24)[C@H](C)CN(c2cn(C)c4ccc(-c5nnc(C6CCCCC6)o5)cc24)C3=O)cc(C)c1Cl` [Example 413, (R)-7-Chloro-10-(3-(4-chloro-3,5-dimethylphenoxy)propyl)-2-(5-(5-cyclohexyl-1,3,4-oxadiazol-2-yl)-1-methyl-1H-indol-3-yl)-4-methyl-6-(1,3,5-trimethyl-1H-pyrazol-4-yl)-3,4-dihydropyrazino[1,2-a]indol-1(2H)-one] the Ki was 3.5 nM.
